Experiments:
Aβtotal = test: Screening for γ-secretase-modulating activity: Aβtotal in supernatant of SKNBE2 cells carrying hAPP 695 wild type (Alphalisa); assay type: cell-based, human; settings: overnight incubation, Alphalisa on supernatant
Method: (§1) Pharmacology A) Screening of the Compounds of the Invention for γ-Secretase-Modulating Activity
(§2) Screening was carried out using SKNBE2 human neuroblastoma cells carrying the hAPP 695—wild type, grown in Dulbecco's Modified Eagle's Medium/Nutrient mixture F-12 (DMEM/NUT-mix F-12) (HAM) provided by Invitrogen (cat no. 10371-029) containing 5% Serum/Fe supplemented with 1% non-essential amino acids, 1-glutamine 2 mM, Hepes 15 mM, penicillin 50 U/mL (units/mL) en streptomycin 50 μg/mL. Cells were grown to near confluency.
(§3) The screening was performed using a modification of the assay as described in Citron et al (1997) Nature Medicine 3: 67. Briefly, cells were plated in a 384-well plate at 10^4 cells/well in Ultraculture (Lonza, BE12-725F) supplemented with 1% glutamine (Invitrogen, 25030-024), 1% non-essential amino acid (NEAA), penicillin 50 U/mL en streptomycin 50 μg/mL in the presence of test compound at different test concentrations. The cell/compound mixture was incubated overnight at 37° C., 5% CO2. The next day the media were assayed by two sandwich immuno-assays, for Aβ42 and Aβtotal.
(§4) Aβtotal and Aβ42 concentrations were quantified in the cell supernatant using the Aphalisa technology (Perkin Elmer). Alphalisa is a sandwich assay using biotinylated antibody attached to streptavidin coated donorbeads and antibody conjugated to acceptor beads. In the presence of antigen, the beads come into close proximity. The excitation of the donor beads provokes the release of singlet oxygen molecules that trigger a cascade of energy transfer in the acceptor beads, resulting in light emission. To quantify the amount of Aβ42 in the cell supernatant, monoclonal antibody specific to the C-terminus of Aβ42 (JRF/cAβ42/26) was coupled to the receptor beads and biotinylated antibody specific to the N-terminus of Aβ (JRF/AβN/25) was used to react with the donor beads. To quantify the amount of Aβ total in the cell supernatant, monoclonal antibody specific to the N-terminus of Aβ (JRF/AβN/25) was coupled to the receptor beads and biotinylated antibody specific to the mid region of Aβ (biotinylated 4G8) was used to react with the donor beads.
(§5) To obtain the values reported in Table 3, the data are calculated as percentage of the maximum amount of amyloid Beta 42 measured in the absence of the test compound. The sigmoidal dose response curves were analyzed using nonlinear regression analysis with percentage of the control plotted against the log concentration of the compound. A 4-parameter equation was used to determine the IC50.

Aβ42 = test: Screening for γ-secretase-modulating activity: Aβ42 in supernatant of SKNBE2 cells carrying hAPP 695 wild type (Alphalisa); assay type: cell-based, human; settings: overnight incubation, Alphalisa on supernatant
Method: as §1, §2, §3, §4, §5

[1] = Homo sapiens, SKNBE2, SKNBE2 human neuroblastoma cells carrying hAPP 695 wild type
[2] = SKNBE2 human neuroblastoma cells carrying hAPP 695 wild type

COc1c(C#N)ccc2[nH]c(-c3nc4n(n3)CCOC4c3cc(C(F)(F)F)ccc3F)cc12 (single isomer, unassigned) [Compound 160, 2-[8-[2-fluoro-5-(trifluoromethyl)phenyl]-5,6-dihydro-8H-[1,2,4]triazolo[5,1-c][1,4]oxazin-2-yl]-4-methoxy-1H-indole-5-carbonitrile]
IC50 (Aβtotal; [1]): > 10000 nM
IC50 (Aβ42; [2]): 5130 nM

COc1c(C#N)ccc2[nH]c(-c3nc4n(n3)CCOC4c3cc(C(F)(F)F)ccc3F)cc12 (single isomer, unassigned) [Compound 161, 2-[8-[2-fluoro-5-(trifluoromethyl)phenyl]-5,6-dihydro-8H-[1,2,4]triazolo[5,1-c][1,4]oxazin-2-yl]-4-methoxy-1H-indole-5-carbonitrile]
IC50 (Aβtotal; [2]): > 10000 nM
IC50 (Aβ42; [2]): 98 nM

Cc1cc(F)ccc1C1OCCn2nc(-c3cc4c(OC(C)C)c(C#N)ccc4[nH]3)nc21 (single isomer, unassigned) [Compound 172, 2-[8-(4-fluoro-2-methylphenyl)-5,6-dihydro-8H-[1,2,4]triazolo[5,1-c][1,4]oxazin-2-yl]-4-(1-methylethoxy)-1H-indole-5-carbonitrile]
IC50 (Aβtotal; [2]): > 10000 nM
IC50 (Aβ42; [2]): > 10000 nM

Cc1cc(F)ccc1C1OCCn2nc(-c3cc4c(OC(C)C)c(C#N)ccc4[nH]3)nc21 (single isomer, unassigned) [Compound 173, 2-[8-(4-fluoro-2-methylphenyl)-5,6-dihydro-8H-[1,2,4]triazolo[5,1-c][1,4]oxazin-2-yl]-4-(1-methylethoxy)-1H-indole-5-carbonitrile]
IC50 (Aβtotal; [1]): > 10000 nM
IC50 (Aβ42; [2]): 251 nM

Cc1cc(-c2ccc3[nH]c(-c4nc5n(n4)CCCC5c4ccc(F)cc4C)nc3c2)ccn1 (single isomer, unassigned) [Compound 174, 8-(4-fluoro-2-methylphenyl)-5,6,7,8-tetrahydro-2-[5-(2-methyl-4-pyridinyl)-1H-benzimidazol-2-yl]-[1,2,4]triazolo[1,5-a]pyridine]
IC50 (Aβtotal; [1]): > 10000 nM
IC50 (Aβ42; [2]): 110 nM

Cc1cc(-c2ccc3[nH]c(-c4nc5n(n4)CCCC5c4ccc(F)cc4C)nc3c2)ccn1 (single isomer, unassigned) [Compound 175, 8-(4-fluoro-2-methylphenyl)-5,6,7,8-tetrahydro-2-[5-(2-methyl-4-pyridinyl)-1H-benzimidazol-2-yl]-[1,2,4]triazolo[1,5-a]pyridine]
IC50 (Aβtotal; [2]): > 10000 nM
IC50 (Aβ42; [2]): 28 nM

Cc1cc(F)ccc1C1CCCn2nc(-c3[nH]c4ccc(C#N)cc4c3F)nc21 (single isomer, unassigned) [Compound 181, 3-fluoro-2-[8-(4-fluoro-2-methylphenyl)-5,6,7,8-tetrahydro[1,2,4]triazolo[1,5-a]pyridin-2-yl]-1H-indole-5-carbonitrile]
IC50 (Aβtotal; [1]): > 10000 nM
IC50 (Aβ42; [2]): 5890 nM

Cc1cc(-c2ccc3[nH]c(-c4nc5n(n4)CCCC5c4ccccc4C(F)(F)F)cc3c2)ccn1 (stereo not drawn) [Compound 2, 5,6,7,8-tetrahydro-2-[5-(2-methyl-4-pyridinyl)-1H-indol-2-yl]-8-[2-(trifluoromethyl)phenyl]-[1,2,4]triazolo[1,5-a]pyridine]
IC50 (Aβtotal; [1]): 7410 nM
IC50 (Aβ42; [1]): 22 nM

Cc1ccc(C(F)(F)F)cc1C1CCCn2nc(-c3cc4cc(C#N)cnc4[nH]3)nc21 (stereo not drawn) [Compound 3, 2-[5,6,7,8-tetrahydro-8-[2-methyl-5-(trifluoromethyl)phenyl][1,2,4]triazolo[1,5-a]pyridin-2-yl]-1H-pyrrolo[2,3-b]pyridine-5-carbonitrile]
IC50 (Aβtotal; [1]): > 10000 nM
IC50 (Aβ42; [1]): 437 nM

Cc1cc(F)ccc1C1CCCn2nc(-c3cc4cc(C#N)ccc4[nH]3)nc21 (stereo not drawn) [Compound 11, 2-[8-(4-fluoro-2-methylphenyl)-5,6,7,8-tetrahydro[1,2,4]triazolo[1,5-a]pyridin-2-yl]-1H-indole-5-carbonitrile]
IC50 (Aβtotal; [2]): > 10000 nM
IC50 (Aβ42; [2]): 3470 nM

Cc1ccccc1C1CCCn2nc(-c3cc4cc(C#N)ccc4[nH]3)nc21 (stereo not drawn) [Compound 14, 2-[5,6,7,8-tetrahydro-8-(2-methylphenyl)[1,2,4]triazolo[1,5-a]pyridin-2-yl]-1H-indole-5-carbonitrile]
IC50 (Aβtotal; [2]): > 10000 nM
IC50 (Aβ42; [2]): 2950 nM

Cc1ccccc1C1CCCn2cc(-c3cc4cc(C#N)ccc4[nH]3)nc21 (stereo not drawn) [Compound 15, 2-[5,6,7,8-tetrahydro-8-(2-methylphenyl)imidazo[1,2-a]pyridin-2-yl]-1H-indole-5-carbonitrile]
IC50 (Aβtotal; [1]): > 10000 nM
IC50 (Aβ42; [1]): 89 nM

N#Cc1ccc2[nH]c(-c3cn4c(n3)C(c3ccccc3C(F)(F)F)CCC4)cc2c1 (stereo not drawn) [Compound 17, 2-[5,6,7,8-tetrahydro-8-[2-(trifluoromethyl)phenyl]imidazo[1,2-a]pyridin-2-yl]-1H-indole-5-carbonitrile]
IC50 (Aβtotal; [1]): > 10000 nM
IC50 (Aβ42; [1]): 87 nM

Cc1cc(F)ccc1C1CCCn2nc(-c3cc4cc(C#N)cnc4[nH]3)nc21 (stereo not drawn) [Compound 23, 2-[8-(4-fluoro-2-methylphenyl)-5,6,7,8-tetrahydro[1,2,4]triazolo[1,5-a]pyridin-2-yl]-1H-pyrrolo[2,3-b]pyridine-5-carbonitrile]
IC50 (Aβtotal; [1]): > 10000 nM
IC50 (Aβ42; [1]): 589 nM

Cc1ccccc1C1CCCn2nc(-c3cc4cc(C#N)ncc4[nH]3)nc21 (stereo not drawn) [Compound 24, 2-[5,6,7,8-tetrahydro-8-(2-methylphenyl)[1,2,4]triazolo[1,5-a]pyridin-2-yl]-1H-pyrrolo[2,3-c]pyridine-5-carbonitrile]
IC50 (Aβtotal; [1]): > 10000 nM
IC50 (Aβ42; [1]): 257 nM

COc1cc2[nH]c(-c3nc4n(n3)CCCC4c3ccccc3C(F)(F)F)cc2cc1C#N (stereo not drawn) [Compound 28, 6-methoxy-2-[5,6,7,8-tetrahydro-8-[2-(trifluoromethyl)phenyl][1,2,4]triazolo[1,5-a]pyridin-2-yl]-1H-indole-5-carbonitrile]
IC50 (Aβtotal; [1]): > 10000 nM
IC50 (Aβ42; [1]): 107 nM

Cc1ccc(C(F)(F)F)cc1C1OCCn2nc(-c3cc4cc(C#N)ccc4[nH]3)nc21 (stereo not drawn) [Compound 34, 2-[5,6-dihydro-8-[2-methyl-5-(trifluoromethyl)phenyl]-8H-[1,2,4]triazolo[5,1-c][1,4]oxazin-2-yl]-1H-indole-5-carbonitrile]
IC50 (Aβtotal; [1]): > 10000 nM
IC50 (Aβ42; [1]): 692 nM

N#Cc1ccc2[nH]c(-c3nc4n(n3)CCOC4c3ccccc3C(F)(F)F)cc2c1 (stereo not drawn) [Compound 35, 2-[5,6-dihydro-8-[2-(trifluoromethyl)phenyl]-8H-[1,2,4]triazolo[5,1-c][1,4]oxazin-2-yl]-1H-indole-5-carbonitrile]
IC50 (Aβtotal; [1]): > 10000 nM
IC50 (Aβ42; [1]): 363 nM

COc1c(C#N)ccc2[nH]c(-c3cn4c(n3)C(c3cccc(F)c3C)OCC4)cc12 (stereo not drawn) [Compound 40, 2-[8-(3-fluoro-2-methylphenyl)-5,6-dihydro-8H-imidazo[2,1-c][1,4]oxazin-2-yl]-4-methoxy-1H-indole-5-carbonitrile]
IC50 (Aβtotal; [1]): > 10000 nM
IC50 (Aβ42; [2]): 35 nM

COc1c(C#N)ccc2[nH]c(-c3cn4c(n3)C(c3cccc(F)c3C)OCC4)cc12 (stereo not drawn) [Compound 42, 2-[8-(3-fluoro-2-methylphenyl)-5,6-dihydro-8H-imidazo[2,1-c][1,4]oxazin-2-yl]-4-methoxy-1H-indole-5-carbonitrile]
IC50 (Aβtotal; [2]): > 10000 nM
IC50 (Aβ42; [2]): 468 nM

COc1c(C#N)ccc2[nH]c(-c3cn4c(n3)C(c3ccccc3Cl)OCC4)cc12 (stereo not drawn) [Compound 49, 2-[8-(2-chlorophenyl)-5,6-dihydro-8H-imidazo[2,1-c][1,4]oxazin-2-yl]-4-methoxy-1H-indole-5-carbonitrile]
IC50 (Aβtotal; [1]): > 10000 nM
IC50 (Aβ42; [2]): 58 nM

COc1c(C#N)ccc2[nH]c(-c3nc4n(n3)CCCOC4c3ccc(F)cc3C)cc12 (stereo not drawn) [Compound 52, 2-[9-(4-fluoro-2-methylphenyl)-6,7-dihydro-5H,9H-[1,2,4]triazolo[5,1-c][1,4]oxazepin-2-yl]-4-methoxy-1H-indole-5-carbonitrile]
IC50 (Aβtotal; [1]): > 10000 nM
IC50 (Aβ42; [2]): 44 nM

COc1c(C#N)ccc2[nH]c(-c3nc4n(n3)CCCOC4c3ccc(F)cc3C)cc12 (stereo not drawn) [Compound 54, 2-[9-(4-fluoro-2-methylphenyl)-6,7-dihydro-5H,9H-[1,2,4]triazolo[5,1-c][1,4]oxazepin-2-yl]-4-methoxy-1H-indole-5-carbonitrile]
IC50 (Aβtotal; [2]): > 10000 nM
IC50 (Aβ42; [2]): 2340 nM

COc1c(C#N)ccc2[nH]c(-c3nc4n(n3)CCN(C)C4c3ccc(F)cc3C)cc12 (stereo not drawn) [Compound 58, 2-[8-(4-fluoro-2-methylphenyl)-5,6,7,8-tetrahydro-7-methyl[1,2,4]triazolo[1,5-a]pyrazin-2-yl]-4-methoxy-1H-indole-5-carbonitrile]
IC50 (Aβtotal; [1]): > 10000 nM
IC50 (Aβ42; [1]): 49 nM

Source: patent US9115143B2, “Substituted indole derivatives as gamma secretase modulators” (Janssen Pharmaceuticals, Inc., priority 2011, dated 2015)
